Consider 1 molecule from patent US20160113911A1, “METHODS AND COMPOSITIONS FOR THE TREATMENT OF CANCER” (THE GENERAL HOSPITAL CORPORATION, priority 2013, published 2016).

What all share (assay type): cell-based, human
Experiment [1] deals with HEK 293T cells. Put plainly: MTT proliferation and viability assay. Particulars: JIB-04 vs vehicle, 48h. Here is the method:
For tissue culture and generation of stable cell lines see (Black et al., 2010). Rapamycin (LC Laboratories) and AZD8055 (Selleckchem) were used at indicated concentrations. […] JIB-04 (Xcessbio) was used at a final concentration of 250 nM. For the translation assays, DMEM depleted of Methionine and Cysteine (Life Technologies 21013-024) was used.
MTT assays were performed following supplier's instructions from the Cell Proliferation Kit I™ (MTT) from Roche. Briefly, 1×10^4 cells were seeded per well of a 96 well plate and grown for 24h before treatment. Forty-eight hours later, cells were assayed.

In the next experiment the test system is KDM4A. Put plainly: KDM4A protein levels by western blot. The following applies: RPE cells; 1% O2. On the procedure:
Western blot analyses were performed according to (Black et al., 2010).
Western blots were performed as in (Black et al., 2010). Briefly, adherent cells were either scraped directly into PBS, or washed with PBS, trypsinized and collected by centrifuging at 2,000 RPM for 5 minutes. For preparation of whole-cell lysates, cell pellets were washed once in ice-cold PBS and resuspended in RIPA lysis buffer [50 mM Tris pH 7.4, 150 mM NaCl, 0.25% Sodium Deoxycholate, 1% NP40, 1 mM EDTA, 10% Glycerol] supplemented with complete protease inhibitor and PhosSTOP™ phosphatase inhibitor cocktails (Roche). Cells were lysed on ice for 15 minutes and immediately frozen at −80° C. for 10 min. Lysates were subsequently sonicated at 70% amplitude for 15 minutes in a QSonica Q800R™ and cleared of cell debris by centrifuging at 12,000 RPM for 15 minutes, before being analyzed by western blotting. For HIF1α expression, adherent cells were washed twice with ice-cold PBS and scraped directly in warmed 1× Laemmli buffer. Samples were sonicated at 70% amplitude for 15 minutes and boiled immediately prior to western blotting.

For a further experiment, the system named is overall translation. Put plainly: Translation assay (AHA incorporation, Click-IT). The following applies: HEK 293T; 24h; 250 nM JIB-04 and 0.1 ng/ml Rapamycin. Here is the method: Translation assays were performed following supplier's instructions from Click-IT™ Metabolic Labeling Reagents for Proteins (Life Technologies). Cells were incubated in presence of DMEM without Cysteine and Methionine for 1 h, then grown in presence of 50 μM AHA (L-azidohomoalanine, Life Technologies C10102) for 2h, harvested and washed extensively with PBS. Cells were lysed in 1% SDS in 50 mM Tris pH8 with 10% Glycerol and sonicated using a bath sonicator (QSonica™ Q800R) for 30 min. The Click-IT reactions were performed following the supplier's instructions from Click-IT™ Protein Reaction Buffer Kit (Life Technologies). Briefly, 50 μg to 100 μg of lysates were used per reaction with 40 μM Alkyne-Biotin (Life Technologies B10185), and 10 μg were assayed by western blot using a Streptavidin antibody conjugated to HRP.

Another experiment relates to translation initiation. Kind of experiment: Polysome profiles. Particulars: 293T cells.
In the next experiment the test system is RPE cells. Put plainly: Flow cytometry cell cycle analysis. Particulars: normoxia and hypoxia. Here is the method: Asynchronously growing, or G1/S arrested cells were prepared and fixed as in (Black et al., 2010). Cells were stained with 10 μM EdU for 1 hour prior to collection. Cell cycle was analyzed by PI staining or EdU incorporation using Click-IT EdU™ Flow Cytometry Assay Kit (Life Technologies). Flow cytometry of CD4+ T cells and cell cycle distribution were analyzed using a BD FACS ARIA II™.

The subject of experiment [2] is HEK 293T cells. Kind of experiment: Monitored cell proliferation assay (xCELLigence growth curves, doubling time). Particulars: HEK293T. On the procedure:
Seventy two hours post transfection 1×10^4 HEK 293T cells were seeded per well of a 96 well plate, and then treated after 24h. Cell proliferation was monitored with an xCELLigence system (Roche) (Vistejnova et al., 2009).

The test system of experiment [3] is 1q12h copy gain in RPE cells. Kind of experiment: FISH for site-specific copy gain. Particulars: RPE cells; 1% O2 24 hours; JIB-04 62.5 nM or 2 mM succinate pre-treatment, or overexpression. Here is the method: FISH was performed as described in (Manning et al., 2010). Probes for 1q12h, 1q telomere, and chromosome 2, 6, 8, and X alpha satellite were purchased from Rainbow Scientific. Probes for 1q12 (RP11-80L2), Xq13.2 (RP11-451A22), Xq13.1 (RP11-177A4) were purchased as BAC clones from Children's Hospital Oakland Research Institute (CHORI BacPac) FISH verified clone repository. Oligonucleotide probes for 1q21.2 (BCL9) and 1q23.3 were purchased from Agilent (SureFISH). BACS were prepared utilizing PureLink HiPure Plasmid Filter Maxiprep kit (Life Technologies) using the recommended modified wash buffer. Probes were nick translated (Abbot Molecular Kit) in the presence of fluorescently labeled dTTP (Enzo Life Science). Images of multiple planes of fields of nuclei were acquired on an Olympus IX81 Spinning Disk Microscope and analyzed using Slidebook 5.0 software. We used a conservative scoring metric for copy gain. Any foci that were touching were scored as a single foci to prevent increased numbers due to normally replicated foci. For RPE cells, copy gain was scored as any cell with 3 or more distinct foci. For 293T cells, copy gain was scored for any cell with 5 or more distinct foci. For RPE cells each experiment includes at least one replicate from the two different polyclonal stable cell preparations. At least 100 cells for each replicate were scored for all experiments except analysis of single cell clones.
Cells were plated onto culture dishes and allowed to adhere for 20-24 hrs in normoxia (5% CO2, 21% O2, and 74% N2). For hypoxic treatment, cells were maintained in a HERA Cell 150™ incubator (Thermo Scientific) flushed with 5% CO2, 1% O2 or 4% O2, and balanced with N2 for the duration of the experiment. Incubator calibrations were carried out by Bianchi Associates Calibrations/Verifications.
To release, cells were washed twice with culture medium pre-conditioned in normoxia or hypoxia, and supplied with fresh pre-conditioned media. For JIB-04 treatment, normoxic cells were pre-treated with 62.5 nM JIB-04 (Xcessbio) for 24 hrs, then treated again with JIB-04 and either transferred to 1% O2 or maintained in normoxia for an additional 24 hrs. Succinate was administered at a final concentration of 2 mM and cells were either maintained in normoxia for 72 hrs or maintained in normoxia for 48 hrs prior to being transferred to 1% O2 for 24 hrs.
FISH was performed as described in (Black et al., 2013; Manning et al., 2010). Probes for 1q12h, 1q telomere, chromosome 8 centromere (alpha satellite), and X centromere (alpha satellite) were purchased from Rainbow Scientific. Probes for Xq13.1 (RP11-177A4), Zebrafish BCL9 (CH73-15J19) and Zebrafish IGBP1 (CH73-223D24) were purchased as BAC clones from Children's Hospital Oakland Research Institute (CHORI BacPac) clone repository. Probes for 1q21.2 (BCL9) and 1q23.3 were purchased from Agilent (SureFISH).
FISH was performed as described in (Black et al., 2013; Manning et al., 2010). Probes for 1q12h, 1q telomere, chromosome 8 centromere (alpha satellite), and X centromere (alpha satellite) were purchased from Rainbow Scientific. Probes for Xq13.1 (RP11-177A4), Zebrafish BCL9 (CH73-15J19) and Zebrafish IGBP1 (CH73-223D24) were purchased as BAC clones from Children's Hospital Oakland Research Institute (CHORI BacPac) clone repository. Probes for 1q21.2 (BCL9) and 1q23.3 were purchased from Agilent (SureFISH). BACS were prepared utilizing PureLink HiPure™ Plasmid Filter Maxiprep kit (Life Technologies) using the recommended modified wash buffer. Probes were nick translated (Abbot Molecular Kit) in the presence of fluorescently labeled dTTP (Enzo Life Science). Images of multiple planes of fields of nuclei were acquired on an Olympus IX81 T Spinning Disk Microscope and analyzed using Slidebook™ 5.0 software. A conservative scoring metric was used for copy gain. Any foci that were touching were scored as a single copy to prevent increased numbers due to normally replicated foci.

The structures appear in SMILES notation. Entries after “also recorded” stand apart in the source; their conditions may differ.

On to `Clc1ccc(N/N=C(\c2ccccc2)c2ccccn2)nc1` [JIB-04], for which the “sensitivity to Rapamycin and AZD8055 upon JIB-04 co-treatment” value with HEK 293T cells [1] was “enhanced the effect of both Rapamycin and AZD8055; also recorded: more sensitive to Rapamycin and AZD8055 than cells treated with vehicle”. The “KDM4A protein levels in hypoxia” value in the experiment with KDM4A was “did not substantially alter KDM4A protein levels in hypoxia”. In the experiment with overall translation, the “overall translation with JIB-04 and Rapamycin” value was “enhanced the alteration of translation observed after Rapamycin treatment”. In addition, the “polysome profile, JIB-04 with Rapamycin” value in the experiment with translation initiation (JIB-04 250 nM and Rapamycin 0.1 ng/ml) was “can sensitize cells to Rapamycin by increasing their translation initiation defect”. Moreover, in the experiment on translation initiation (JIB-04 250 and 500 nM), the “polysome profile, JIB-04 alone” value is listed as “leads to a translation initiation defect”. In addition, in the experiment on RPE cells, the cell cycle profile result is “did not result in significant differences in cell cycle between normoxic and hypoxic cells”. Besides, in the experiment with HEK 293T cells [2] (250 nM JIB-04 and 1 ng/ml of Rapamycin), the “cell sensitivity to Rapamycin (doubling time between 5 h and 35 h)” value was “increases cell sensitivity to Rapamycin”. Also, in the experiment on HEK 293T cells [2] (250 nM JIB-04 and 50 nM of AZD8055), the “cell sensitivity to AZD8055 (doubling time between 5 h and 35 h)” value is reported as “increases cell sensitivity to AZD8055”. Moreover, the “hypoxia-dependent copy gain of 1q12h” value in experiment [3] is on record as “did significantly reduce hypoxia-dependent copy gain of 1q12h”.
